This note sets out measurements from ChEMBL document CHEMBL4043259, “From UTP to AR-C118925, the discovery of a potent non nucleotide antagonist of the P2Y2 receptor” (Bioorg Med Chem Lett, 2017).

One series addresses P2Y purinoceptor 2 (Homo sapiens, UniProt P41231). Briefly: Antagonist activity at human P2Y2R expressed in human Jurkat cells assessed as inhibition of UTP-activated intracellular calcium mobilization by fluo-3AM dye based fluorescence assay. The format is functional, cell-based. The conditions noted are these: read-out: pA2 (converted).
Series [1] in a line: Clearance in rat administered via iv. The class given is ADME. The conditions noted are these: in vivo.
Series [2] is described as follows: Volume of distribution at steady state in rat administered via iv. The class given is ADME. Particulars: in vivo, read-out: Vdss.
Series [3] can be described thus: Half life in rat administered via iv. The format is ADME. Particulars: in vivo.
Series [4] can be described thus: Bioavailability in rat. The class given is ADME, organism-based. The conditions noted are these: in vivo.

Chain of P2Y purinoceptor 2 (P41231 whole entry): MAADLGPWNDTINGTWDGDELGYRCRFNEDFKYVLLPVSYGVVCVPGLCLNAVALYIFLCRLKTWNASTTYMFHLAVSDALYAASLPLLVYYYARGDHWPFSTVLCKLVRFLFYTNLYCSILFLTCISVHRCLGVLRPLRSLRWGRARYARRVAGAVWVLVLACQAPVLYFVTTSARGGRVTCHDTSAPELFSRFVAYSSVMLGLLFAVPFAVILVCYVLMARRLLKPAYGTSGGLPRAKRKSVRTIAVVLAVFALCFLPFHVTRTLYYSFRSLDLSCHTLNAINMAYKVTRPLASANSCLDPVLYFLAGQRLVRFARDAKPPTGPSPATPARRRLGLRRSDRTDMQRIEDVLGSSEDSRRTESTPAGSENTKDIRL

Regarding `O=c1[nH]c(=S)c(C(c2ccccc2)c2ccccc2)cn1[C@@H]1O[C@H](COP(=O)(O)OP(=O)(O)C(Cl)(Cl)P(=O)(O)O)[C@@H](O)[C@H]1O`, at P2Y purinoceptor 2, the Kb is 1000 nM.
Still for that read-out and setting: next, `COc1ccc(C(c2ccc(OC)cc2)c2cn([C@@H]3O[C@H](COP(=O)(O)OP(=O)(O)C(Cl)(Cl)P(=O)(O)O)[C@@H](O)[C@H]3O)c(=O)[nH]c2=S)cc1`: 79.4 nM; `O=c1[nH]c(=S)c(C2c3ccccc3Oc3ccccc32)cn1[C@@H]1O[C@H](COP(=O)(O)OP(=O)(O)C(Cl)(Cl)P(=O)(O)O)[C@@H](O)[C@H]1O`: 50.1 nM.
Take `O=c1[nH]c(=S)c(C2c3ccccc3C=Cc3ccccc32)cn1[C@@H]1O[C@H](COP(=O)(O)OP(=O)(O)C(Cl)(Cl)P(=O)(O)O)[C@@H](O)[C@H]1O`: the Kb on P2Y purinoceptor 2 is 3.16 nM.
Still for that read-out and setting: next, `O=C(O)c1ccc(Cn2cc(C3c4ccccc4C=Cc4ccccc43)c(=S)[nH]c2=O)o1`: 1260 nM; `O=C(O)Cc1cccc(Cn2cc(C3c4ccccc4C=Cc4ccccc43)c(=S)[nH]c2=O)c1`: 2000 nM; `Cc1ccc2c(c1)C=Cc1cc(C)ccc1C2c1cn(Cc2ccc(C(=O)Nc3nc(CC(=O)O)cs3)o2)c(=O)[nH]c1=S`: 31.6 nM.
Take `O=C(O)c1cc(Cn2cc(C3c4ccccc4C=Cc4ccccc43)c(=S)[nH]c2=O)cs1`: the Kb at P2Y purinoceptor 2 was 2510 nM.
Regarding `O=c1[nH]c(=S)c(C(c2ccc(Cl)c(Cl)c2)c2ccc(Cl)c(Cl)c2)cn1[C@@H]1O[C@H](COP(=O)(O)OP(=O)(O)C(Cl)(Cl)P(=O)(O)O)[C@@H](O)[C@H]1O`, the Kb at P2Y purinoceptor 2 is 20 nM.
As to `O=C(O)c1csc(Cn2cc(C3c4ccccc4C=Cc4ccccc43)c(=O)[nH]c2=O)n1`, the Kb at P2Y purinoceptor 2 was 39800 nM.
Still for that read-out and setting: next, `O=c1[nH]c(=S)c(C2c3ccccc3C=Cc3ccccc32)cn1[C@@H]1O[C@H](CO)[C@@H](O)[C@H]1O`: 20000 nM.
With `O=C(O)c1ccc(Cn2cc(C3c4ccc(Cl)cc4C=Cc4cc(Cl)ccc43)c(=S)[nH]c2=O)o1`, the Kb on P2Y purinoceptor 2 is 200 nM.
For `Cc1ccc2c(c1)C=Cc1cc(C)ccc1C2c1cn(Cc2ccc(C(=O)Nc3nc(CC(=O)N[C@@H](CC(=O)O)C(=O)O)cs3)o2)c(=O)[nH]c1=S`, the Kb on P2Y purinoceptor 2 was 63.1 nM.
`Cc1ccc2c(c1)C=Cc1cc(C)ccc1C2c1cn(Cc2nc(C(=O)O)cs2)c(=O)[nH]c1=S`: on P2Y purinoceptor 2, the Kb was 251 nM.
As for `Cc1ccc2c(c1)C=Cc1cc(C)ccc1C2c1cn(Cc2ccc(C(=O)Nc3nnn[nH]3)o2)c(=O)[nH]c1=S`, the clearance in series [1] was 75 mL/min/kg. The Vd in series [2] was 4.34 L/kg. For the same compound, the half-life in series [3] was 127 min. This compound came in with a bioavailability in series [4] of 0%.
With `Cc1ccc(C(c2ccc(C)cc2)c2cn([C@@H]3O[C@H](COP(=O)(O)OP(=O)(O)C(Cl)(Cl)P(=O)(O)O)[C@@H](O)[C@H]3O)c(=O)[nH]c2=S)cc1`, at P2Y purinoceptor 2, the Kb is 15.8 nM.
Still for that read-out and setting: next, `O=c1[nH]c(=S)c(C2c3ccccc3CCc3ccccc32)cn1[C@@H]1O[C@H](COP(=O)(O)OP(=O)(O)C(Cl)(Cl)P(=O)(O)O)[C@@H](O)[C@H]1O`: 10 nM; `O=C(O)COc1cccc(Cn2cc(C3c4ccccc4C=Cc4ccccc43)c(=S)[nH]c2=O)c1`: 2510 nM; `O=C(O)c1csc(Cn2cc(C3c4ccccc4C=Cc4ccccc43)c(=S)[nH]c2=O)n1`: 2000 nM.
`Cc1ccc2c(c1)C=Cc1cc(C)ccc1C2c1cn(Cc2ccc(C(=O)N[C@@H](CC(=O)O)C(=O)O)o2)c(=O)[nH]c1=S`: on P2Y purinoceptor 2, the Kb was 25.1 nM.
In the case of `O=c1[nH]c(=S)c(C(c2ccc(Cl)cc2)c2ccc(Cl)cc2)cn1[C@@H]1O[C@H](COP(=O)(O)OP(=O)(O)C(Cl)(Cl)P(=O)(O)O)[C@@H](O)[C@H]1O`, the Kb on P2Y purinoceptor 2 is 12.6 nM.
`O=c1[nH]c(=S)c(C2c3ccccc3-c3ccccc32)cn1[C@@H]1O[C@H](COP(=O)(O)OP(=O)(O)C(Cl)(Cl)P(=O)(O)O)[C@@H](O)[C@H]1O`: the Kb at P2Y purinoceptor 2 is 63.1 nM.
Consider `O=C(O)c1cccc(Cn2cc(C3c4ccccc4C=Cc4ccccc43)c(=S)[nH]c2=O)c1`, for which the Kb on P2Y purinoceptor 2 was 3980 nM.
With `O=C(O)c1coc(Cn2cc(C3c4ccccc4C=Cc4ccccc43)c(=S)[nH]c2=O)n1`, at P2Y purinoceptor 2, the Kb is 1580 nM.
`O=C(O)c1cnc(Cn2cc(C3c4ccccc4C=Cc4ccccc43)c(=S)[nH]c2=O)s1`: on P2Y purinoceptor 2, the Kb is 6310 nM.
On to `Cc1ccc2c(c1)C=Cc1cc(C)ccc1C2c1cn(Cc2nc(C(=O)N[C@@H](CC(=O)O)C(=O)O)cs2)c(=O)[nH]c1=S`, for which the Kb on P2Y purinoceptor 2 was 39.8 nM.
On to `Cc1ccc2c(c1)C=Cc1cc(C)ccc1C2c1cn(Cc2ccc(C(=O)O)o2)c(=O)[nH]c1=S`, for which, at P2Y purinoceptor 2, the Kb is 100 nM.
As for `O=C(O)c1cccc(Cn2cc(C3c4ccccc4C=Cc4ccccc43)c(=S)[nH]c2=O)n1`, the Kb on P2Y purinoceptor 2 is 3980 nM.

In general, clearance refers to the volume of plasma or blood freed of the substance per unit of time. The low end stands for inefficient removal, the high end for efficient removal. In general, half-life refers to how long it takes for the measured level to halve. A word on the bioavailability: it is the share of a dose that reaches the circulation, judged against a reference dose that is usually intravenous.
